US20070049515A1, “Therapeutic agent for diabetes containing insulin resistance improving agent” (SANKYO COMPANY, LIMITED, priority 2005, published 2007)

What was measured:
Type in all cases: in vivo, rat
[1] = test system: Zucker diabetic fatty rats; experiment: Administration of the effective and low doses of compound A in combination (Example 1(a)): blood glucose level, red blood cell count, heart weight; details: for red blood cell count: FIG. 2; for heart weight: FIG. 3; for blood glucose level (mean) after the decrease to the low dose: oral once a day, from the 14th day on
From the text: Zucker diabetic fatty rats (9-week-old, from Charles River Laboratories Japan, Inc.) were used in the experiment. The rats were divided into 4 groups of 5 individuals each so that body weight, blood glucose level, and red blood cell count may each be uniform among the groups, and each of these groups served as a low-dose treatment group (Ia), a low-dose treatment group (Ib), a continuous treatment group, or a control group. Food (FR2, from Funabashi Nojo) and water were given ad libitum during the testing period. A 0.5% carboxymethyl cellulose (CMC) solution only was administered to the control group, and a CMC suspension of compound A was orally administered to all of the other groups, once a day in doses described below. For the low-dose treatment group (Ia), it was administered at 3 mg/kg for 2 weeks and then at a decreased dose of 0.03 mg/kg for a further 3 weeks. For the low-dose treatment group (Ib), it was administered at 3 mg/kg for 2 weeks and then at a decreased dose of 0.3 mg/kg for a further 3 weeks. For the continuous treatment group, 3 mg/kg was administered for 5 weeks. Blood was collected every 7 days from the start of administration using a capillary tube treated with heparin and EDTA, and blood glucose level and blood cell parameters were determined using an autoanalyzer (blood glucose level: Glucoroder GX-T from A&T Corporation), blood cell parameters: KX-21N from Sysmex Corporation).

[2] = test system: Zucker diabetic fatty rats; experiment: Cycle of one week full coverage followed by four weeks of reduced dosage (Example 1(b)); details: one week full coverage (3 mg/kg) followed by four weeks of reduced dosage (0.3 mg/kg)
[3] = test system: Zucker diabetic fatty rats; experiment: Intermittent administration of compound A (Example 2): blood glucose level, red blood cell count, heart weight; details: for blood glucose level: FIG. 4; for red blood cell count: FIG. 5; for heart weight: FIG. 6
From the text: Zucker diabetic fatty rats (9-week-old, from Charles River Laboratories Japan, Inc.) were used in the experiment. The rats were divided into 3 groups so that body weight, blood glucose level, and red blood cell count may each be uniform among the groups, and each of these groups served as a control group, an intermittent treatment group, or a continuous treatment group (n=4 to 5). Food (FR2, from Funabashi Nojo) and water were given ad libitum during the testing period. A 0.5% carboxymethyl cellulose (CMC) solution only was administered to the control group, and a CMC suspension of compound A was forcibly orally administered to the intermittent treatment group and continuous treatment group according to the regimen described below. For the intermittent treatment group, compound A was repeatedly given in a dose of 1 mg/kg once a day for one week before decreasing the administration thereof to twice a week to administer it for a further two weeks (dosing days: days 0 to 7, 10, 14, and 17). In this respect, the CMC solution was given on the days when compound A was not administered. For the continuous treatment group, 1 mg/kg was repeatedly administered once a day for three weeks. Blood was collected at days 0, 2, 5, 7, 9, 12, 14, 16, 19, and 21 when the start date of dosing was shown as day 0, using a capillary tube treated with heparin, and blood glucose level and blood cell parameters were determined using an autoanalyzer (blood glucose level: Glucoroder GX-T from A&T Corporation, blood cell parameters: KX-21N from Sysmex Corporation)

[4] = continuous treatment group: 3 mg/kg orally once a day for 5 weeks
[5] = low-dose treatment group (Ia): 3 mg/kg for 2 weeks, then 0.03 mg/kg for 3 weeks
[6] = low-dose treatment group (Ib): 3 mg/kg for 2 weeks, then 0.3 mg/kg for 3 weeks
[7] = continuous treatment group: 1 mg/kg orally once a day for three weeks
[8] = intermittent treatment group: 1 mg/kg once a day for one week, then twice a week for two weeks

- heart weight [1, 4]: marked increase in heart weight
- red blood cell count [1, 5]: recovered nearly to control level
- heart weight [3, 7]: marked increase in heart weight
- red blood cell count [3, 8]: an increase in red blood cell count
Compound: COc1ccc2nc(COc3ccc(CC4SC(=O)NC4=O)cc3)n(C)c2c1.Cl (stereo not shown) [compound A, 5-[4-(6-methoxy-1-methyl-1H-benzimidazol-2-ylmethoxy)benzyl]thiazolidin-2,4-dione hydrochloride]
- blood glucose level ([1]; continuous treatment group: 3 mg/kg orally once a day for 5 weeks, FIG. 1): lowered to a normal value
- red blood cell count [1, 4]: hemodilution (a decrease in red blood count)
- blood glucose level (mean) after the decrease to the low dose ([1]; low-dose treatment group (Ia): 3 mg/kg for 2 weeks, then 0.03 mg/kg for 3 weeks, FIG. 1): ≤ 300 mg/dL
- heart weight [1, 5]: clearly decreased values compared to that in the continuous treatment group
- blood glucose level (mean) after the decrease to the low dose ([1]; low-dose treatment group (Ib): 3 mg/kg for 2 weeks, then 0.3 mg/kg for 3 weeks, FIG. 1): ≤ 300 mg/dL
- red blood cell count [1, 6]: rapidly recovered in dose-dependent manner
- heart weight [1, 6]: clearly decreased values compared to that in the continuous treatment group
- results (blood glucose level, red blood cell count, heart weight) compared with Example 1(a) [2]: Almost the same results to those described above
- blood glucose level [3, 7]: lowered to a normal range
- red blood cell count [3, 7]: hemodilution (a decrease in red blood cell count)
- blood glucose level [3, 8]: nearly the same level as that in the continuous treatment group
- heart weight [3, 8]: decreased in value compared to that in the continuous treatment group
